{"source": "ChEMBL document CHEMBL3046898", "about": "“Synthesis and characterization of flurbiprofen hydrazide derivatives as potential anti-HCV, anticancer and antimicrobial agents” (2013)", "key": {"Aspergillus": {"system": "Aspergillus", "assay": "Antifungal activity against Aspergillus at 10 mg/ml after 72 hrs by disc diffusion method", "format": "functional, organism-based"}, "Pichia membranifaciens": {"system": "Pichia membranifaciens", "assay": "Antifungal activity against Pichia membranifaciens at 10 mg/ml after 48 hrs by disc diffusion method", "format": "functional, organism-based"}, "Nakaseomyces glabratus": {"system": "Nakaseomyces glabratus", "assay": "Antifungal activity against Candida glabrata at 10 mg/ml after 48 hrs by disc diffusion method", "format": "functional, organism-based"}, "Candida parapsilosis": {"system": "Candida parapsilosis", "assay": "Antifungal activity against Candida parapsilosis at 10 mg/ml after 48 hrs by disc diffusion method", "format": "functional, organism-based"}, "Candida albicans": {"system": "Candida albicans", "assay": "Antifungal activity against Candida albicans at 10 mg/ml after 48 hrs by disc diffusion method", "format": "functional, organism-based"}, "HCC 2998": {"system": "HCC 2998", "assay": "Cytotoxicity against human HCC2998 assessed as cell growth at 10 uM after 48 hrs by SRB assay", "format": "functional", "settings": "HCC 2998, 48 h, read-out: Activity"}, "T47D": {"system": "T47D", "assay": "Cytotoxicity against human T47D assessed as cell growth at 10 uM after 48 hrs by SRB assay", "format": "functional", "settings": "read-out: Activity"}, "BT-549": {"system": "BT-549", "assay": "Cytotoxicity against human BT549 assessed as cell growth at 10 uM after 48 hrs by SRB assay", "format": "functional", "settings": "BT-549, 48 h, read-out: Activity"}, "MDA-MB-231": {"system": "MDA-MB-231", "assay": "Cytotoxicity against human MDA-MB-231 assessed as cell growth at 10 uM after 48 hrs by SRB assay", "format": "functional", "settings": "MDA-MB-231, 48 h, read-out: Activity"}, "Hs-578T": {"system": "Hs-578T", "assay": "Cytotoxicity against human Hs 578T assessed as cell growth at 10 uM after 48 hrs by SRB assay", "format": "functional", "settings": "read-out: Activity"}, "MCF7": {"system": "MCF7", "assay": "Cytotoxicity against human MCF7 assessed as cell growth at 10 uM after 48 hrs by SRB assay", "format": "functional", "settings": "MCF7, 48 h, read-out: Activity"}, "DU-145": {"system": "DU-145", "assay": "Cytotoxicity against human DU145 assessed as cell growth at 10 uM after 48 hrs by SRB assay", "format": "functional", "settings": "DU-145, 48 h, read-out: Activity"}, "UO-31": {"system": "UO-31", "assay": "Cytotoxicity against human UO31 assessed as cell growth at 10 uM after 48 hrs by SRB assay", "format": "functional", "settings": "UO-31, 48 h, read-out: Activity"}, "SN12C": {"system": "SN12C", "assay": "Cytotoxicity against human SN12C assessed as cell growth at 10 uM after 48 hrs by SRB assay", "format": "functional", "settings": "read-out: Activity"}, "RXF 393": {"system": "RXF 393", "assay": "Cytotoxicity against human RXF393 assessed as cell growth at 10 uM after 48 hrs by SRB assay", "format": "functional", "settings": "RXF 393, 48 h, read-out: Activity"}, "ACHN": {"system": "ACHN", "assay": "Cytotoxicity against human ACHN assessed as cell growth at 10 uM after 48 hrs by SRB assay", "format": "functional", "settings": "read-out: Activity"}, "A498": {"system": "A498", "assay": "Cytotoxicity against human A498 assessed as cell growth at 10 uM after 48 hrs by SRB assay", "format": "functional", "settings": "A498, 48 h, read-out: Activity"}, "OVCAR-8": {"system": "OVCAR-8", "assay": "Cytotoxicity against human OVCAR8 assessed as cell growth at 10 uM after 48 hrs by SRB assay", "format": "functional", "settings": "OVCAR-8, 48 h, read-out: Activity"}, "IGROV-1": {"system": "IGROV-1", "assay": "Cytotoxicity against human IGROV1 assessed as cell growth at 10 uM after 48 hrs by SRB assay", "format": "functional", "settings": "IGROV-1, 48 h, read-out: Activity"}, "UACC-62": {"system": "UACC-62", "assay": "Cytotoxicity against human UACC62 assessed as cell growth at 10 uM after 48 hrs by SRB assay", "format": "functional", "settings": "UACC-62, 48 h, read-out: Activity"}, "UACC-257": {"system": "UACC-257", "assay": "Cytotoxicity against human UACC257 assessed as cell growth at 10 uM after 48 hrs by SRB assay", "format": "functional", "settings": "UACC-257, 48 h, read-out: Activity"}, "SK-MEL-5": {"system": "SK-MEL-5", "assay": "Cytotoxicity against human SK-MEL-5 assessed as cell growth at 10 uM after 48 hrs by SRB assay", "format": "functional", "settings": "SK-MEL-5, 48 h, read-out: Activity"}, "SK-MEL-28": {"system": "SK-MEL-28", "assay": "Cytotoxicity against human SK-MEL-28 assessed as cell growth at 10 uM after 48 hrs by SRB assay", "format": "functional", "settings": "SK-MEL-28, 48 h, read-out: Activity"}, "Malme-3M": {"system": "Malme-3M", "assay": "Cytotoxicity against human MALME-3M assessed as cell growth at 10 uM after 48 hrs by SRB assay", "format": "functional", "settings": "read-out: Activity"}, "M14": {"system": "M14", "assay": "Cytotoxicity against human M14 assessed as cell growth at 10 uM after 48 hrs by SRB assay", "format": "functional", "settings": "M14, 48 h, read-out: Activity"}, "SNB-75": {"system": "SNB-75", "assay": "Cytotoxicity against human SNB75 assessed as cell growth at 10 uM after 48 hrs by SRB assay", "format": "functional", "settings": "SNB-75, 48 h, read-out: Activity"}, "SNB-19": {"system": "SNB-19", "assay": "Cytotoxicity against human SNB19 assessed as cell growth at 10 uM after 48 hrs by SRB assay", "format": "functional", "settings": "SNB-19, 48 h, read-out: Activity"}, "SF-295": {"system": "SF-295", "assay": "Cytotoxicity against human SF295 assessed as cell growth at 10 uM after 48 hrs by SRB assay", "format": "functional", "settings": "SF-295, 48 h, read-out: Activity"}, "SF-539": {"system": "SF-539", "assay": "Cytotoxicity against human SF539 assessed as cell growth at 10 uM after 48 hrs by SRB assay", "format": "functional", "settings": "SF-539, 48 h, read-out: Activity"}, "SF-268": {"system": "SF-268", "assay": "Cytotoxicity against human SF268 assessed as cell growth at 10 uM after 48 hrs by SRB assay", "format": "functional", "settings": "SF-268, 48 h, read-out: Activity"}, "NCI-H522": {"system": "NCI-H522", "assay": "Cytotoxicity against human NCI-H522 assessed as cell growth at 10 uM after 48 hrs by SRB assay", "format": "functional", "settings": "NCI-H522, 48 h, read-out: Activity"}, "NCI-H322M": {"system": "NCI-H322M", "assay": "Cytotoxicity against human NCI-H322M assessed as cell growth at 10 uM after 48 hrs by SRB assay", "format": "functional", "settings": "read-out: Activity"}, "NCI-H226": {"system": "NCI-H226", "assay": "Cytotoxicity against human NCI-H226 assessed as cell growth at 10 uM after 48 hrs by SRB assay", "format": "functional", "settings": "NCI-H226, 48 h, read-out: Activity"}, "NCI-H23": {"system": "NCI-H23", "assay": "Cytotoxicity against human NCI-H23 assessed as cell growth at 10 uM after 48 hrs by SRB assay", "format": "functional", "settings": "NCI-H23, 48 h, read-out: Activity"}, "Salmonella paratyphi": {"system": "Salmonella paratyphi", "assay": "Antibacterial activity against Salmonella paratyphi at 6.25 to 200 ug/ml after 24 hrs by microwell dilution method", "format": "functional, organism-based", "settings": "Salmonella enterica subsp. enterica serovar Paratyphi A"}, "A549": {"system": "A549", "assay": "Cytotoxicity against human A549 assessed as cell growth at 10 uM after 48 hrs by SRB assay", "format": "functional", "settings": "A549, 48 h, read-out: Activity"}, "RPMI-8226": {"system": "RPMI-8226", "assay": "Cytotoxicity against human RPMI8226 assessed as cell growth at 10 uM after 48 hrs by SRB assay", "format": "functional", "settings": "RPMI-8226, 48 h, read-out: Activity"}, "MOLT-4": {"system": "MOLT-4", "assay": "Cytotoxicity against human MOLT4 assessed as cell growth at 10 uM after 48 hrs by SRB assay", "format": "functional", "settings": "MOLT-4, 48 h, read-out: Activity"}, "Micrococcus lylae": {"system": "Micrococcus lylae", "assay": "Antibacterial activity against Micrococcus lylae at 10 mg/ml after 24 hrs by disc diffusion method", "format": "functional, organism-based"}, "Escherichia coli": {"system": "Escherichia coli", "assay": "Antibacterial activity against Escherichia coli at 10 mg/ml after 24 hrs by disc diffusion method", "format": "functional, organism-based"}, "Micrococcus luteus": {"system": "Micrococcus luteus", "assay": "Antibacterial activity against Micrococcus luteus at 10 mg/ml after 24 hrs by disc diffusion method", "format": "functional, organism-based"}}, "note": "Active and inactive are the calls of the source. The rule behind the calls is not given here."}
{"molecule": "CC(C(=O)NN1C(=O)CSC1c1ccc(C(F)(F)F)cc1)c1ccc(-c2ccccc2)c(F)c1", "note": "(stereo unspecified)", "values": [{"measurement": "Activity", "setting": "Aspergillus", "value": "inactive"}, {"measurement": "Activity", "setting": "Pichia membranifaciens", "value": "inactive"}, {"measurement": "Activity", "setting": "Nakaseomyces glabratus", "value": "inactive"}, {"measurement": "Activity", "setting": "Candida parapsilosis", "value": "inactive"}, {"measurement": "Activity", "setting": "Candida albicans", "value": "inactive"}, {"measurement": "growth at 10 µM", "setting": "HCC 2998", "value": 155, "unit": "%"}, {"measurement": "growth at 10 µM", "setting": "T47D", "value": 33.4, "unit": "%"}, {"measurement": "growth at 10 µM", "setting": "BT-549", "value": 68, "unit": "%"}, {"measurement": "growth at 10 µM", "setting": "MDA-MB-231", "value": 70.1, "unit": "%"}, {"measurement": "growth at 10 µM", "setting": "Hs-578T", "value": 54.2, "unit": "%"}, {"measurement": "growth at 10 µM", "setting": "MCF7", "value": 43, "unit": "%"}, {"measurement": "growth at 10 µM", "setting": "DU-145", "value": 81.5, "unit": "%"}, {"measurement": "growth at 10 µM", "setting": "UO-31", "value": 58.8, "unit": "%"}, {"measurement": "growth at 10 µM", "setting": "SN12C", "value": 72.3, "unit": "%"}, {"measurement": "growth at 10 µM", "setting": "RXF 393", "value": 72.5, "unit": "%"}, {"measurement": "growth at 10 µM", "setting": "ACHN", "value": 59.6, "unit": "%"}, {"measurement": "growth at 10 µM", "setting": "A498", "value": 56.8, "unit": "%"}, {"measurement": "growth at 10 µM", "setting": "OVCAR-8", "value": 86.5, "unit": "%"}, {"measurement": "growth at 10 µM", "setting": "IGROV-1", "value": 75.5, "unit": "%"}, {"measurement": "growth at 10 µM", "setting": "UACC-62", "value": 50.9, "unit": "%"}, {"measurement": "growth at 10 µM", "setting": "UACC-257", "value": 94.4, "unit": "%"}, {"measurement": "growth at 10 µM", "setting": "SK-MEL-5", "value": 81.8, "unit": "%"}, {"measurement": "growth at 10 µM", "setting": "SK-MEL-28", "value": 99.9, "unit": "%"}, {"measurement": "growth at 10 µM", "setting": "Malme-3M", "value": 63, "unit": "%"}, {"measurement": "growth at 10 µM", "setting": "M14", "value": 54.5, "unit": "%"}, {"measurement": "growth at 10 µM", "setting": "SNB-75", "value": 43, "unit": "%"}, {"measurement": "growth at 10 µM", "setting": "SNB-19", "value": 54.7, "unit": "%"}, {"measurement": "growth at 10 µM", "setting": "SF-295", "value": 58.4, "unit": "%"}, {"measurement": "growth at 10 µM", "setting": "SF-539", "value": 63, "unit": "%"}, {"measurement": "growth at 10 µM", "setting": "SF-268", "value": 62.1, "unit": "%"}, {"measurement": "growth at 10 µM", "setting": "NCI-H522", "value": 79.5, "unit": "%"}, {"measurement": "growth at 10 µM", "setting": "NCI-H322M", "value": 76.9, "unit": "%"}, {"measurement": "growth at 10 µM", "setting": "NCI-H226", "value": 86, "unit": "%"}, {"measurement": "growth at 10 µM", "setting": "NCI-H23", "value": 90.4, "unit": "%"}, {"measurement": "Activity", "setting": "Salmonella paratyphi", "value": "inactive"}, {"measurement": "growth at 10 µM", "setting": "A549", "value": 68.6, "unit": "%"}, {"measurement": "growth at 10 µM", "setting": "RPMI-8226", "value": 43.3, "unit": "%"}, {"measurement": "growth at 10 µM", "setting": "MOLT-4", "value": 43.5, "unit": "%"}, {"measurement": "Activity", "setting": "Micrococcus lylae", "value": "inactive"}, {"measurement": "Activity", "setting": "Escherichia coli", "value": "inactive"}, {"measurement": "Activity", "setting": "Micrococcus luteus", "value": "inactive"}]}
